# Measurements taken from US9232796B2, “Herbicidal compositions comprising 4-amino-3-chloro-5-fluoro-6-(4-chloro-2-fluoro-3-methoxyphenyl) pyridine-2-carboxylic acid or a derivative thereof and acetyl-CoA carboxylase (ACCase) inhibitors” (DOW AGROSCIENCES LLC, priority 2012, dated 2016).
# Experiments:
# ECHCG = assay: Example VI in-water applied ternary mixtures, greenhouse, transplanted paddy rice weeds; type: in vivo, Echinochloa crus-galli (L.) Beauv.; conditions: Table 68, 22.5 gai/ha, 21 DAA
# Description: Weed seeds or nutlets of the desired test plant species were planted in puddled soil (mud) prepared by mixing a shredded, non-sterilized mineral soil (50.5 percent silt, 25.5 percent clay, and 24 percent sand, with a pH of about 7.6 and an organic matter content of about 2.9 percent) and water at a 1:1 volumetric ratio. The prepared mud was dispensed in 365 mL aliquots into 16-ounce (oz.) non-perforated plastic pots with a surface area of 86.59 square centimeters (cm^2) leaving a headspace of 3 centimeters (cm) in each pot. Mud was allowed to dry overnight prior to planting or transplanting. Rice seeds were planted in Sun Gro MetroMix® 306 planting mixture, which typically has a pH of 6.0 to 6.8 and an organic matter content of about 30 percent, in plastic plug trays. Seedlings at the second or third leaf stage of growth were transplanted into 860 mL of mud contained in 32-oz. non-perforated plastic pots with a surface area of 86.59 cm^2 4 days prior to herbicide application. The paddy was created by filling the headspace of the pots with 2.5 to 3 cm of water. When required to ensure good germination and healthy plants, a fungicide treatment and/or other chemical or physical treatment was applied. The plants were grown for 4-22 days in a greenhouse with an approximate 14 hr. photoperiod which was maintained at about 29° C. during the day and 26° C. during the night. Nutrients were added as Osmocote® (19:6:12, N:P:K+minor nutrients) at 2 g per 16-oz. pot and 4 g per 32-oz. pot. Water was added on a regular basis to maintain the paddy flood, and supplemental lighting was provided with overhead metal halide 1000-Watt lamps as necessary. The plants were employed for testing when they reached the first through fourth true leaf stage.
# Treatments consisted of the benzyl ester of 4-amino-3-chloro-5-fluoro-6-(4-chloro-2-fluoro-3-methoxy-phenyl)pyridine-2-carboxylic acid (Compound A), formulated as an SC (suspension concentrate), an ACCase inhibitor herbicide, and a third herbicidal component, each applied alone and in ternary combination. Forms of compound A were applied on an acid equivalent basis.
# The ACCase inhibitor component was applied on an active ingredient basis and included cyhalofop-R-butyl formulated as Clincher® G and metamifop formulated as Metamifop EC. Other herbicidal components were applied on an active ingredient or acid equivalent basis depending on the compound and included penoxsulam formulated as Grasp® SC, bentazon sodium formulated as Basagran®, triclopyr […] (TEA) salt formulated as Grandstand® R, benzobicyclon formulated as Benzobicyclon, benfuresate formulated as Full Slot® WG, pyraclonil formulated as Pyraclon® Flowable, mefenacet (technical grade material), and pretilachlor (technical grade material).
# Treatment requirements for each compound or herbicidal component were calculated based upon the rates being tested, the concentration of active ingredient or acid equivalent in the formulation, an application volume of 1 mL per component per pot, and an application area of 86.59 cm^2 per pot.
# For formulated compounds, a measured amount was placed in an individual 100 or 200 mL glass vial and was dissolved in a volume of 1.25% (v/v) Agri-Dex® crop oil concentrate to obtain application solutions.
# For technical grade compounds, a weighed amount was placed in an individual 100 to 200 mL glass vial and was dissolved in a volume of acetone to obtain concentrated stock solutions.
# Applications were made by injecting with a pipetter appropriate amounts of the application solutions, into the aqueous layer of the paddy. Control plants were treated in the same manner with the solvent blank. Applications were made so that all treated plant material received the same concentrations of acetone and crop oil concentrate.
# The treated plants and control plants were placed in a greenhouse as described above and water was added as needed to maintain a paddy flood. […]
# SCPMA = assay: as above; type: in vivo; conditions: Table 68, pyraclonil 22.5 gai/ha
# DIGSA = assay: Example I postemergence foliar-applied, greenhouse, direct seeded rice weeds; type: in vivo, Digitaria sanguinalis (L.) Scop.; conditions: 70 gai/ha
# Description: (§1) Seeds or nutlets of the desired test plant species were planted in a soil matrix prepared by mixing a loam or sandy loam soil (e.g., 28.6 percent silt, 18.8 percent clay, and 52.6 percent sand, with a pH of about 5.8 and an organic matter content of about 1.8 percent) and calcareous grit in an 80 to 20 ratio. The soil matrix was contained in plastic pots with a volume of 1 quart and a surface area of 83.6 square centimeters (cm^2). When required to ensure good germination and healthy plants, a fungicide treatment and/or other chemical or physical treatment was applied. The plants were grown for 8-22 days in a greenhouse with an approximate 14 hr. photoperiod which was maintained at about 29° C. during the day and 26° C. during the night. Nutrients (Peters Excel® 15-5-15 5-Ca 2-Mg and iron chelate) were applied in the irrigation solution as needed and water was added on a regular basis. Supplemental lighting was provided with overhead metal halide 1000-Watt lamps as necessary. The plants were employed for testing when they reached the first through fourth true leaf stage.
# Treatments consisted of the acid or esters of 4-amino-3-chloro-5-fluoro-6-(4-chloro-2-fluoro-3-methoxy-phenyl)pyridine-2-carboxylic acid (Compound A), each formulated as an SC (suspension concentrate), and various herbicidal components alone and in combination. […]
# (§2) Treatment requirements were calculated based upon the rates being tested, the concentration of active ingredient or acid equivalent in the formulation, and a 12 mL application volume at a rate of 187 L/ha.
# For treatments comprised of formulated compounds, measured amounts of compounds were placed individually in 25 mL glass vials and diluted in a volume of 1.25% (v/v) Agri-Dex® crop oil concentrated to obtain 12× stock solutions. […]
# (§3) The treated plants and control plants were placed in a greenhouse as described above and watered by sub-irrigation to prevent wash-off of the test compounds. After approximately 3 weeks, the condition of the test plants as compared with that of the untreated plants was determined visually and scored on a scale of 0 to 100 percent where 0 corresponds to no injury or growth inhibition and 100 corresponds to complete kill. […]
# BRAPP = assay: as above; type: in vivo, Brachiaria platyphylla (Griseb.) Nash; conditions: 70 gai/ha
# Description: as §1
# (§4) Treatments consisted of the acid or esters of 4-amino-3-chloro-5-fluoro-6-(4-chloro-2-fluoro-3-methoxy-phenyl)pyridine-2-carboxylic acid (Compound A), each formulated as an SC (suspension concentrate), and various herbicidal components alone and in combination.
# (§5) Other herbicidal components were applied on an acid equivalent (ae) or active ingredient (ai) basis and included acetyl coA carboxylase (ACCase)-inhibiting herbicides (cyclohexanedione and aryloxyphenoxypropionate chemical classes) cyhalofop-butyl formulated as Clincher® SF (285 gr ai/L EC), diclofop-methyl formulated as Hoelon® 3EC, fenoxaprop-p-ethyl+isoxadifen-ethyl formulated as RiceStar® HT (0.58 lb./gal EC), fenoxaprop-p-ethyl+mefenpyr diethyl formulated as Puma® IEC, metamifop formulated as Metamifop EC, haloxyfop-methyl formulated as Gallant Super®, fluazifop-p-butyl formulated as Fusilade® DX, quizalofop-p-ethyl formulated as Assure® II, profoxydim formulated as Aura® 20EC, clethodim applied as Intensity®, sethoxydim formulated as Poast®, and tralkoxydim formulated as Achieve®.
# as §2
# (§6) For treatments comprised of formulated compounds, measured amounts of compounds were placed individually in 25 mL glass vials and diluted in a volume of 1.25% (v/v) Agri-Dex® crop oil concentrated to obtain 12× stock solutions. […] Application solutions were prepared by adding an appropriate amount of each stock solution (e.g., 1 mL) and diluted to the appropriate final concentrations with the addition of 10 mL of an aqueous mixture of 1.25% (v/v) crop oil concentrate so that the final spray solutions contained 1.25+/−0.05% (v/v) crop oil concentrate.
# (§7) All stock solutions and applications solutions were visually inspected for compound compatibility prior to application. Spray solutions were applied to the plant material with an overhead Mandel track sprayer equipped with a 8002E nozzles calibrated to deliver 187 L/ha over an application area of 0.503 m^2 at a spray height of 18 to 20 inches (46 to 50 cm) above average plant canopy height. Control plants were sprayed in the same manner with the solvent blank.
# as §3
# SCPJU = assay: as above; type: in vivo, Schoenoplectus juncoides (Roxb.) Palla
# Description: as §1, §4, §5, §2, §6, §7, §3
# CYPES = assay: as above; type: in vivo, Cyperus esculentus L.
# Description: as §1, §4, §5, §2, §6, §7, §3
Structure (SMILES),Visual Weed Control (%) - 21 DAA ECHCG Obs (ECHCG),Visual Weed Control (%) - 21 DAA SCPMA Obs (SCPMA),Visual Weed Control (%) - 20 DAA DIGSA Obs (DIGSA),Visual Weed Control (%) - 20 DAA BRAPP Obs (BRAPP),Visual Weed Control (%) - 20 DAA SCPJU Obs (SCPJU; 140 gai/ha),Visual Weed Control (%) - 20 DAA SCPJU Obs (SCPJU; 280 gai/ha),Visual Weed Control (%) - 20 DAA CYPES Obs (CYPES; 70 gai/ha),Visual Weed Control (%) - 20 DAA CYPES Obs (CYPES; 140 gai/ha),Visual Weed Control (%) - 20 DAA CYPES Obs (CYPES; 280 gai/ha)
C#CCN(C)c1c(C#N)cnn1-c1nn2c(c1Cl)CCCC2 [Pyraclonil],30%,78%,,,,,,,
"CCSC(C)CC1CC(=O)C(/C(CC)=N/OC/C=C/Cl)=C(O)C1 (stereo not drawn) [Clethodim, 2-[1-[[[(2E)-3-chloro-2-propen-1-yl]oxy]imino]propyl]-5-[2-(ethylthio)propyl]-3-hydroxy-2-cyclohexen-1-one, reference compound]",,,50%,10%,0%,0%,0%,0%,0%
